Laboratory results: US20260345795A1, “MULTIVALENCY FOR ENZYME INHIBITION” (Indiana University Research and Technology Corporation, priority 2022, published 2026)
Several values for one entry are separate records, joined by “and”; a condition that tells them apart may be missing. Identical values can stand only once. Entries after “also recorded” stand apart in the source; their conditions may differ. Like-named read-outs stand apart in the source and are kept apart here. One block for each compound: values may come before it.

How the values were obtained:
[1] = molecular target: T1, Human plasmin (Homo sapiens, UniProt P00747); assay: Plasmin inhibition assay with chromogenic substrate S-2251, Dixon plot / Cornish-Bowden analysis; assay type: biochemical; details: role: inhibitor; for rp1: relative potency = Ki^AMB/Ki^multi: hetero-bivalent inhibitors relative to AMB; for rp2: relative potency = Ki^TXA or EACA/Ki^multi: hetero-bivalent inhibitors relative to TXA or EACA; for mode of inhibition (Cornish-Bowden plot): S-2251; for rp: relative potency = Ki^AMB/Ki^multi: benzamidine inhibitors relative to AMB; for rp/n: relative potency/number of benzamidine units: relative to AMB per benzamidine unit
T1 construct: a heavy chain (~60 kDa) comprising 5 kringle domains
T1 sequence (P00747 581-810 limits assumed): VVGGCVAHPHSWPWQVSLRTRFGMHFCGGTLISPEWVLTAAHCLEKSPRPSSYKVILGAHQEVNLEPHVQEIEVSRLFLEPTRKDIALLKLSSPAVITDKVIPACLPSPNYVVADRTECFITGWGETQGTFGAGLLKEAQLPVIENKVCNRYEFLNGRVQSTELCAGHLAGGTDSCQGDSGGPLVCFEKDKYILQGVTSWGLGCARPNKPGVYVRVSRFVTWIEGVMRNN
T1 sequence (P00747 97-580 limits assumed): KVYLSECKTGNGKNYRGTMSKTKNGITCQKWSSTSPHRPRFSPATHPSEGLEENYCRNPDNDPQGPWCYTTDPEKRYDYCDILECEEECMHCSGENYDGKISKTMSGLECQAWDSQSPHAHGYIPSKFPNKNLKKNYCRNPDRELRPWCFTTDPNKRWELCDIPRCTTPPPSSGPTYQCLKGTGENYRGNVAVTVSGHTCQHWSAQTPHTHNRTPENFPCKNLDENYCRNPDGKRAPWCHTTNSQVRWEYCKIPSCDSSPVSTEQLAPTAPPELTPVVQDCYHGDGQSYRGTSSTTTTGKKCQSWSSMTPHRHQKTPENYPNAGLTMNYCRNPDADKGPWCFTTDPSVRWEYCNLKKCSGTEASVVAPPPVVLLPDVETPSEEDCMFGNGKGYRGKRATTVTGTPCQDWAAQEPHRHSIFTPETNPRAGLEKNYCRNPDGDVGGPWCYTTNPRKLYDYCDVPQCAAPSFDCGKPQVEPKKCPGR
Protocol: Inhibition assays were performed on all synthesized multivalent affinity molecules in addition to free AMB and Pentamidine. […] Ki values were calculated for all multivalent affinity molecules via Dixon Plot analysis using the negative x-intersection point. […] A smaller Ki value indicates a higher degree of inhibition. Cornish-Bowden graphs (S/Vo vs I) were also plotted to verify the type of inhibition, i.e., competitive, uncompetitive, non-competitive, or mixed.
Parameters used to quantify multivalency, namely, relative potency (rp), and relative potency per unit (rp/n) were also computed. To evaluate the strength of the multivalent affinity molecules as compared to the monovalent affinity molecules, rp was used and is a ratio of Ki^mono to Ki^multi Ki of monovalent AMB was used for this calculation since AMB was utilized for synthesis of the multivalent affinity molecules. […] To better evaluate multivalency effects, rp/n was also computed to determine the benefit of linking multiple affinity moieties together.
Human plasmin (42.5 nM) over a range of inhibitor concentrations (0-2 mM) and chromogenic substrate concentrations (Chromogenix S-2251 100-500 μM) were utilized for Inhibition assays.
Human plasmin (42.5 nM) over a range of inhibitor concentrations (0-500 μM) and chromogenic substrate concentrations (Chromogenix S-2251 100-500 μM) were utilized for Inhibition assays.
In this example, homo-multivalent and hetero multivalent micelles were synthesized to determine their plasmin inhibition. […] After weighing and mixing the appropriate lipids amounts in chloroform, a lipid film was made by slowly evaporating chloroform while rotating the vial gently under air. The dried lipid film was placed in a desiccator under vacuum overnight. The lipid film was rehydrated using 2 mL PBS and was sonicated for 2 mins while heating at 60° C. to obtain more rapid and less polydisperse micelle formation by self-assembly. […] Human plasmin (42.5 nM) over a range of inhibitor concentrations (0-500 μM) and chromogenic substrate concentrations (Chromogenix S-2251 100-500 μM) were utilized for Inhibition assays.

[2] = molecular target: thrombin (Homo sapiens, UniProt P00734); assay: Thrombin inhibition assay with fluorogenic Thrombin Substrate III, Dixon plot analysis; assay type: biochemical; details: role: inhibitor; for Ki: PBS pH 7.4, 10% DMSO, read-out: Inhibition constant (Ki); for thrombin inhibition compared to plasmin: thrombin vs plasmin
Protocol: In this example, commercially available inhibitors shown in Table 1, Tri-AMB and all hetero-multivalent inhibitors were tested for their thrombin inhibition. Inhibition assays were performed using a fixed thrombin concentration of 0.25 U/mL in PBS pH 7.4 over a range of Thrombin Substrate III (fluorogenic) concentrations of 20-50 μM at 10% DMSO.

[3] = molecular target: tPA (Homo sapiens, UniProt P00750); assay: tPA inhibition assay with chromogenic tPA substrate S-2288, Dixon plot analysis; assay type: biochemical; details: role: inhibitor; for Ki / tPA inhibition relative to another inhibitor: tPA 75 nM, S-2288 100-500 μM; for Ki: PBS pH 7.4, read-out: Inhibition constant (Ki); for tPA inhibition compared to plasmin: tPA vs plasmin
Chain of tPA (P00750 36-562, species assumed): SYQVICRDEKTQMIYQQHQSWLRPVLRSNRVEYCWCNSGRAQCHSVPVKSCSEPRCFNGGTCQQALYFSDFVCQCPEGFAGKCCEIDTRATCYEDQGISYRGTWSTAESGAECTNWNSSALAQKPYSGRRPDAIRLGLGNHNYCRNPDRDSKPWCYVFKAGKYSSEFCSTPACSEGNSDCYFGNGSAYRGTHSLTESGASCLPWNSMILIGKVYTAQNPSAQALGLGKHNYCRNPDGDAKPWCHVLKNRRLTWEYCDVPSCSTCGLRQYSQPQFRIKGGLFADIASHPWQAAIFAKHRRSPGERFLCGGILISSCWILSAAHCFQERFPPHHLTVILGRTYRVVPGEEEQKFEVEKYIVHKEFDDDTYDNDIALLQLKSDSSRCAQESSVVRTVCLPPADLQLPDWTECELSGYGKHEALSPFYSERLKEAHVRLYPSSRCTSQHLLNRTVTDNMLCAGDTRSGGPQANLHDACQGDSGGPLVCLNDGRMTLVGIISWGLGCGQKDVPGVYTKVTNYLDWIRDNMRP
Protocol: Inhibition assays were performed using a fixed tPA concentration of 75 nM in PBS pH 7.4 over a range of Chromogenic tPA Substrate (S-2288) concentrations of 100-500 μM.

[4] = tested on: light chain and kringle 5 of plasmin; details: cited from earlier work
[5] = molecular target: LBS sites on other kringle domains of plasmin; details: role: inhibitor; cited from earlier work
[6] = treatment delayed beyond 3 hours; cited from earlier work
[7] = tested on: plasmin; details: role: inhibitor; Alves et al.; cited from earlier work
[8] = hetero-bivalent inhibitors, human plasmin 42.5 nM, S-2251 100-500 μM, read-out: Inhibition constant (Ki)
[9] = thrombin 0.25 U/mL, Thrombin Substrate III 20-50 μM
[10] = substrate S-2251 100-500 μM, plasmin 42.5 nM, PBS pH 7.4, benzamidine inhibitors, Dixon plot, read-out: Inhibition constant (Ki)

- Ki [1, 8]: 0.075 mM and 0.0754 mM
- rp1: relative potency = Ki^AMB/Ki^multi ([1]; plasmin, S-2251 100-500 μM): 19
- rp2: relative potency = Ki^TXA or EACA/Ki^multi ([1]; plasmin, S-2251 100-500 μM): 285
- Ki [2, 9]: 78 ± 1.5 µM
SMILES: N=C(N)c1ccc(CNC(=O)CCOCCOCCOCCOCCOCCOCCOCCOCCOCCOCCOCCOCCOCCOCCOCCOCCOCCOCCOCCOCCOCCOCCOCCOCCOCCOCCOCCOCCOCCOCCOCCOCCOCCOCCOCCOCCNC(=O)[C@H]2CC[C@H](CN)CC2)cc1 [TXA-dPEG36-AMB]

- Ki [2, 9]: 10.6 ± 2 µM
- Ki [3]: 112 ± 21 µM
SMILES: N=C(N)c1ccc(CNC(=O)CN(CC(=O)NCc2ccc(C(=N)N)cc2)CC(=O)NCc2ccc(C(=N)N)cc2)cc1 [Tri-AMB]
- thrombin inhibition compared to plasmin [2]: slightly weaker thrombin inhibitors compared to plasmin
- tPA inhibition compared to plasmin [3]: weaker tPA inhibitors compared to plasmin

- mode of inhibition (Cornish-Bowden plot) ([1]; plasmin 42.5 nM, PBS pH 7.4): competitive inhibitor
- rp: relative potency = Ki^AMB/Ki^multi ([1]; plasmin, S-2251 100-500 μM): 3.9
- rp/n: relative potency/number of benzamidine units ([1]; plasmin, S-2251 100-500 μM): 3.9
- Ki [1, 10]: 0.36 ± 0.0352 mM
SMILES: COCCOCCOCCOCCOCCOCCOCCOCCOCCOCCOCCOCCC(=O)NCc1ccc(C(=N)N)cc1 [m-dPEG12-AMB]

- Ki [3]: 148 ± 0.9 µM
SMILES: N=C(N)c1ccc(N)cc1 [4-amino benzamidine, 4-Aminobenzamidine, reference compound]

- Ki [1, 8]: 0.099 ± 0.0009 mM
- rp1: relative potency = Ki^AMB/Ki^multi ([1]; plasmin, S-2251 100-500 μM): 14
- rp2: relative potency = Ki^TXA or EACA/Ki^multi ([1]; plasmin, S-2251 100-500 μM): 216
SMILES: N=C(N)c1ccc(CNC(=O)CCOCCOCCOCCOCCOCCOCCOCCOCCNC(=O)[C@H]2CC[C@H](CN)CC2)cc1 [TXA-dPEG8-AMB]

- rp: relative potency = Ki^AMB/Ki^multi ([1]; plasmin, S-2251 100-500 μM): 25.2
- rp/n: relative potency/number of benzamidine units ([1]; plasmin, S-2251 100-500 μM): 12.6
SMILES: N=C(N)c1ccc(CNC(=O)CCOCCOCCC(=O)NCc2ccc(C(=N)N)cc2)cc1 [Bis-dPEG2-AMB]
- mode of inhibition (Cornish-Bowden plot) ([1]; plasmin 42.5 nM, PBS pH 7.4): competitive inhibition; also recorded: competitive inhibitor

SMILES: N=C(N)c1ccccc1 [Benzamidine]
- subsite binding [4]: weak subsite binding

- Ki [2, 9]: > 10000 µM
SMILES: NCCCCCC(=O)O [EACA, ε-Aminocaproic Acid, reference compound]

- mode of inhibition (Cornish-Bowden plot) ([1]; plasmin 42.5 nM, PBS pH 7.4): competitive inhibitor
- rp: relative potency = Ki^AMB/Ki^multi ([1]; plasmin, S-2251 100-500 μM): 2.7
- rp/n: relative potency/number of benzamidine units ([1]; plasmin, S-2251 100-500 μM): 2.7
- Ki [1, 10]: 0.521 ± 0.0849 mM
SMILES: COCCOCCOCCOCCOCCOCCOCCOCCOCCOCCOCCOCCOCCOCCOCCOCCOCCOCCOCCOCCOCCOCCOCCOCCC(=O)NCc1ccc(C(=N)N)cc1 [m-dPEG24-AMB]

- Ki [1, 8]: 0.207 mM
- rp1: relative potency = Ki^AMB/Ki^multi ([1]; plasmin, S-2251 100-500 μM): 7
- rp2: relative potency = Ki^TXA or EACA/Ki^multi ([1]; plasmin, S-2251 100-500 μM): 103
- Ki [2, 9]: 46 ± 1.5 µM
- tPA inhibition relative to another inhibitor [3]: stronger tPA inhibitor than TXA-PEG4-AMB
- Ki [3]: 128 ± 11 µM
SMILES: N=C(N)c1ccc(CNC(=O)CCOCCOCCOCCOCCOCCOCCOCCOCCOCCOCCOCCOCCNC(=O)[C@H]2CC[C@H](CN)CC2)cc1 [TXA-dPEG12-AMB]

- Ki ([1]; TXA affinity molecules, human plasmin 42.5 nM, S-2251 100-500 μM, read-out: Inhibition constant (Ki)): 6.4 ± 2.03 mM
- Ki ([1]; human plasmin 42.5 nM, S-2251 100-500 μM, text value in mM, read-out: Ki (active site inhibition of plasmin)): 6.4 mM
- rp: relative potency = Ki^TXA/Ki^multi ([1]; plasmin, TXA affinity molecules relative to TXA, S-2251 100-500 μM): 3.3
- rp/n: relative potency/number of TXA units ([1]; plasmin, relative to TXA per TXA unit, S-2251 100-500 μM): 1.7
SMILES: NC[C@H]1CC[C@H](C(=O)NCCCC[C@H](NC(=O)[C@H]2CC[C@H](CN)CC2)C(N)=O)CC1 [Bis-TXA]

- Ki [1, 8]: 0.042 ± 0.0124 mM
- rp1: relative potency = Ki^AMB/Ki^multi ([1]; plasmin, S-2251 100-500 μM): 33
- rp2: relative potency = Ki^TXA or EACA/Ki^multi ([1]; plasmin, S-2251 100-500 μM): 509
- fold stronger than m-dPEG4-AMB (plasmin inhibition) ([1]; plasmin, relative to m-dPEG4-AMB, S-2251 100-500 μM): over 7 fold
- Ki [2, 9]: 14.5 ± 6.7 µM
- Ki [3]: 230 ± 30 µM
SMILES: N=C(N)c1ccc(CNC(=O)CCOCCOCCOCCOCCNC(=O)[C@H]2CC[C@H](CN)CC2)cc1 [TXA-dPEG4-AMB]

SMILES: NC[C@H]1CC[C@H](C(=O)O)CC1 [TXA, Tranexamic acid]
- Ki [5]: 0.75 µM
- clinical trial outcome of delayed treatment [6]: ineffective or harmful

- Ki [1, 8]: 0.233 ± 0.005 mM
- rp1: relative potency = Ki^AMB/Ki^multi ([1]; plasmin, S-2251 100-500 μM): 6
- rp2: relative potency = Ki^TXA or EACA/Ki^multi ([1]; plasmin, S-2251 100-500 μM): 305
- Ki [2, 9]: 5.6 ± 0.2 µM
SMILES: N=C(N)c1ccc(CNC(=O)CCOCCOCCOCCOCCNC(=O)CCCCCN)cc1 [EACA-dPEG4-AMB]

- Ki [1, 8]: 1.4 ± 0.166 mM
- mode of inhibition (Cornish-Bowden plot) ([1]; plasmin 42.5 nM, PBS pH 7.4): competitive inhibitor
- Ki [1, 10]: 1.4 mM
- Ki [2, 9]: 344 ± 33 µM
- Ki [3]: 5210 ± 161 µM
SMILES: N=C(N)c1ccc(CN)cc1 [AMB, 4-aminomethyl benzamidine, reference compound]

- mode of inhibition (Cornish-Bowden plot) ([1]; plasmin 42.5 nM, PBS pH 7.4): competitive inhibitor
- rp: relative potency = Ki^AMB/Ki^multi ([1]; plasmin, S-2251 100-500 μM): 27.6
- rp/n: relative potency/number of benzamidine units ([1]; plasmin, S-2251 100-500 μM): 9.2
- Ki [1, 10]: 0.0505 ± 0.014 mM
SMILES: N=C(N)c1ccc(CNC(=O)CCOCCOCCOCCOCCNC(=O)CN(CC(=O)NCCOCCOCCOCCOCCC(=O)NCc2ccc(C(=N)N)cc2)CC(=O)NCCOCCOCCOCCOCCC(=O)NCc2ccc(C(=N)N)cc2)cc1 [Tri-dPEG4-AMB]

- Ki [2, 9]: 151 ± 4 µM
SMILES: N=C(N)c1ccc(C(=O)O)cc1 [4-carboxy benzamidine, 4-Carboxybenzamidine, reference compound]

SMILES: N=C(N)c1ccc(OCCCCCOc2ccc(C(=N)N)cc2)cc1 [Pentamidine, reference compound]
- mode of inhibition (Cornish-Bowden plot) ([1]; plasmin 42.5 nM, PBS pH 7.4): competitive inhibitor
- rp: relative potency = Ki^AMB/Ki^multi ([1]; plasmin, S-2251 100-500 μM): 664.3
- rp/n: relative potency/number of benzamidine units ([1]; plasmin, S-2251 100-500 μM): 332.1
- Ki [1, 10]: 0.0021 mM and 0.0026 mM
- thrombin inhibition relative to another inhibitor [2, 9]: slightly stronger thrombin inhibitor than Tri-AMB
- Ki [2, 9]: 4.5 ± 2.3 µM
- thrombin inhibition compared to plasmin [2]: slightly weaker thrombin inhibitors compared to plasmin
- tPA inhibition relative to another inhibitor [3]: stronger inhibitor than Tri-AMB
- Ki [3]: 48 ± 12 µM
- tPA inhibition compared to plasmin [3]: weaker tPA inhibitors compared to plasmin
- fold stronger plasmin inhibitor than the strongest monovalent benzamidine [7]: 15 fold
